# Results taken from PubChem BioAssay AID1845203 (Molecular Pharmacology Branch, DTP, NCI, 2023).
# Several values for one entry are separate records, joined by “and”; a condition that tells them apart may be missing. Equal entries are not always repeated.
# System: G-401 tumor spheroids, viability % test/control
# Test: Anticancer human tumor G-401 cell line growth inhibition;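 note: spheroids exposed to compound for 7 days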;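 for viability, T/C: 100% = DMSO vehicle-treated spheroids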
# Conditions: spheroids with HUVEC and MSC; for viability, T/C: stronger effect = lower value
# Source text: Multicellular complex tumor spheroid response to DNA repair inhibitors in combination with DNA-damaging drugs
# This study explores the anticancer activities of DNA-damaging drugs and inhibitors of DNA damage repair, both as single agents and in combinations. Complex tumor spheroids comprised of malignant cells, endothelial cells and mesenchymal stem cells served as an in vitro model for human solid tumors. This model system incorporates physiologically relevant features and patient-derived or established malignant cell lines with clinically relevant genetic alterations from many tumor types. Twenty-six patient-derived or established malignant cell lines were evaluated representing sarcoma, melanoma, small cell lung cancer (SCLC), non-small cell lung cancer (NSCLC), as well as bladder, ovarian and pancreatic cancers. The concentration ranges selected for each drug and investigational agent were based upon clinically achievable concentrations if the clinical Cmax of the agent was known.
# Compounds. The drugs and compounds olaparib (NSC753686), talazoparib (NSC767125), berzosertib (NSC777718), elimusertib (NSC800525), nedisertib (NSC802822), VX-984 (NSC792969), AZD-1390 (NSC803789), temozolomide (NSC362856), topotecan (NSC609699), trabectedin (NSC813783), staurosporine (NSC755774), and gemcitabine (NSC613327) were obtained from the National Cancer Institute (NCI) Developmental Therapeutics Program Chemical Repository. The FDA-approved anticancer drug set is available from the Developmental Therapeutics Program at https://dtp.cancer.gov/organization/dscb/obtaining/available_plates.htm. […] The stock solutions were prepared in dimethyl sulfoxide (DMSO, Sigma-Aldrich, St. Louis, MO, cat. D2650) at 400-fold the tested concentration and stored at -70 degrees C. Prior to their use, the stock solutions were diluted in fresh medium and the final DMSO concentration in the assay was 0.25% (v/v). All drugs and investigational agents were tested over a range starting from a high concentration at or near the clinical Cmax and decreasing in half-log increments. If the clinical Cmax for an agent had not been determined, the highest concentration tested was 10 microM.
# Cell Lines. The patient-derived cancer cell (PDC) lines: 156681-154-R-J1-PDC, 283228-195-R-J1-PDC, 287954-098-R-J1-PDC, 292921-168-R-J2-PDC, 349418-098-R-PDC, 425362-245-T-J1-PDC, 556581-035-R-J1-PDC, and BL0293-F563-PDC were received from the NCI Patient-Derived Models Repository (PDMR, https://pdmr.cancer.gov). The established cell lines HS-SY-2 (RRID:CVCL_8719), MPNST, and SYO-1 (RRID:CVCL_7146) were obtained from the Sloan Kettering Institute. The alveolar soft parts sarcoma cell line ASPS-1 (RRID:CVCL_S738) was established at the NCI and grown from internal seed stocks. The following established cell lines were purchased from the American Type Culture Collection (ATCC, Manassas, VA): G-401 (ATCC, cat. CRL-1441, RRID:CVCL_0270), SW982 (ATCC, cat. HTB-93, RRID:CVCL_1734), VA-ES-BJ (ATCC, cat. CRL-2138, RRID:CVCL_1785), NCI-H719 (ATCC, cat. CRL-5837, RRID:CVCL_1582), NCI-H196 (ATCC, cat. CRL-5823, RRID:CVCL_1509), NCI-H841 (ATCC, cat. CRL-5845, RRID:CVCL_1595), NCI-H1618 (ATCC, cat. CRL-5879, RRID:CVCL_1480), NCI-H1876 (ATCC, cat. CRL-5902, RRID:CVCL_1503), DMS 114 (ATCC, cat. CRL-2066; RRID:CVCL_1174), NCI-H211 (ATCC, cat. CRL-5824; RRID:CVCL_1529), and SW 1271 (ATCC, cat. CRL-2177, RRID:CVCL_1716). The small cell lung cancer cell line COR-L88 was purchased from Sigma-Aldrich (cat. 92031917-1VL, RRID:CVCL_1141). The non-small cell lung cancer cell lines NCI-H226 (RRID:CVCL_1544) and NCI-H322M (RRID:CVCL_1557) were established at the NCI and grown from internal seed stocks. Pooled donor human umbilical vein endothelial cells (HUVEC, Lonza, cat. CC-2519) and human mesenchymal stem cells (hMSC, Lonza, cat. PT-2501) were purchased from Lonza (Walkersville, MD).
# Cell Culture. All cells were maintained in an incubator at 37 degrees C and 5% CO2 with 95% humidity. […]
# [1] = curve of first compound, second compound 1 µM
# [2] = curve of first compound, second compound 3.16 µM
# [3] = curve of first compound, second compound 10 µM
# [4] = curve of first compound, second compound 31.6 µM
# [5] = curve of first compound, second compound 100 µM
# [6] = second compound 1 µM, first compound 0.0316 µM
# [7] = second compound 1 µM, first compound 0.1 µM
# [8] = second compound 1 µM, first compound 0.316 µM
# [9] = second compound 1 µM, first compound 1 µM
# [10] = second compound 1 µM, first compound 3.16 µM
# [11] = second compound 1 µM, first compound 10 µM
# [12] = second compound 3.16 µM, first compound 0.0316 µM
# [13] = second compound 3.16 µM, first compound 0.1 µM
# [14] = second compound 3.16 µM, first compound 0.316 µM
# [15] = second compound 3.16 µM, first compound 1 µM
# [16] = second compound 3.16 µM, first compound 3.16 µM
# [17] = second compound 3.16 µM, first compound 10 µM
# [18] = second compound 10 µM, first compound 0.0316 µM
# [19] = second compound 10 µM, first compound 0.1 µM
# [20] = second compound 10 µM, first compound 0.316 µM
# [21] = second compound 10 µM, first compound 1 µM
# [22] = second compound 10 µM, first compound 3.16 µM
# [23] = second compound 10 µM, first compound 10 µM
# [24] = second compound 31.6 µM, first compound 0.0316 µM
# [25] = second compound 31.6 µM, first compound 0.1 µM
# [26] = second compound 31.6 µM, first compound 0.316 µM
# [27] = second compound 31.6 µM, first compound 1 µM
# [28] = second compound 31.6 µM, first compound 3.16 µM
# [29] = second compound 31.6 µM, first compound 10 µM
# [30] = second compound 100 µM, first compound 0.0316 µM
# [31] = second compound 100 µM, first compound 0.1 µM
# [32] = second compound 100 µM, first compound 0.316 µM
# [33] = second compound 100 µM, first compound 1 µM
# [34] = second compound 100 µM, first compound 3.16 µM
# [35] = second compound 100 µM, first compound 10 µM
smiles,measurement,setting,value
COc1cc(C)[nH]c(=O)c1CN1CCc2c(Cl)cc(C(OC)C3COC3)c(Cl)c2C1=O (centres undefined) + Cn1nnc2c(C(N)=O)ncn2c1=O,IC50,[1],160 nM
same,IC50,[2],201 nM
same,IC50,[3],145 nM
same,IC50,[4],208 nM
same,IC50,[5],203 nM
same,"viability, T/C",[6],88.4%
same,"viability, T/C",[7],57.9%
same,"viability, T/C",[8],38.3%
same,"viability, T/C",[9],31.7%
same,"viability, T/C",[10],21.3%
same,"viability, T/C",[11],27.6%
same,"viability, T/C",[12],86.3%
same,"viability, T/C",[13],63%
same,"viability, T/C",[14],41.2%
same,"viability, T/C",[15],30.4%
same,"viability, T/C",[16],24.3%
same,"viability, T/C",[17],23.5%
same,"viability, T/C",[18],81%
same,"viability, T/C",[19],59.9%
same,"viability, T/C",[20],25.5%
same,"viability, T/C",[21],33.8%
same,"viability, T/C",[22],30.4%
same,"viability, T/C",[23],27.2%
same,"viability, T/C",[24],81.8%
same,"viability, T/C",[25],60.8%
same,"viability, T/C",[26],43.9%
same,"viability, T/C",[27],32.2%
same,"viability, T/C",[28],27.9%
same,"viability, T/C",[29],23.4%
same,"viability, T/C",[30],88.3%
same,"viability, T/C",[31],62%
same,"viability, T/C",[32],43.3%
same,"viability, T/C",[33],29.6%
same,"viability, T/C",[34],30.8%
same,"viability, T/C",[35],24.7%
CC1COCCN1c1cc(-c2ccnn2C)c2ccnc(-c3ccn[nH]3)c2n1 (centres undefined) + Cn1nnc2c(C(N)=O)ncn2c1=O,IC50,[1],76.9 nM
same,IC50,[2],86.6 nM
same,IC50,[3],79.7 nM
same,IC50,[4],70 nM
same,IC50,[5],55.6 nM
same,"viability, T/C",[6],76.3%
same,"viability, T/C",[7],42.1%
same,"viability, T/C",[8],22.9%
same,"viability, T/C",[9],15.9%
same,"viability, T/C",[10],16.1%
same,"viability, T/C",[11],20%
same,"viability, T/C",[12],79.8%
same,"viability, T/C",[13],45.6%
same,"viability, T/C",[14],24.9%
same,"viability, T/C",[15],16.8%
same,"viability, T/C",[16],17.4%
same,"viability, T/C",[17],19.8%
same,"viability, T/C",[18],76%
same,"viability, T/C",[19],43.6%
same,"viability, T/C",[20],21.5%
same,"viability, T/C",[21],15.7%
same,"viability, T/C",[22],16.4%
same,"viability, T/C",[23],18.8%
same,"viability, T/C",[24],74.5%
same,"viability, T/C",[25],39%
same,"viability, T/C",[26],18%
same,"viability, T/C",[27],15.4%
same,"viability, T/C",[28],16.2%
same,"viability, T/C",[29],18.5%
same,"viability, T/C",[30],66%
same,"viability, T/C",[31],33.4%
same,"viability, T/C",[32],13.7%
same,"viability, T/C",[33],12.7%
same,"viability, T/C",[34],14.1%
same,"viability, T/C",[35],12%
CC(C)n1c(=O)n(C)c2cnc3cc(F)c(-c4ccc(OCCCN5CCCCC5)nc4)cc3c21,"viability, T/C",compound 0.0316 µM,87.5% and 105% and 107%
same,"viability, T/C",compound 0.1 µM,92.2% and 105% and 104%
same,"viability, T/C",compound 0.316 µM,47.9% and 100% and 108%
same,"viability, T/C",compound 1 µM,90.7% and 101% and 103%
same,"viability, T/C",compound 3.16 µM,95.9% and 98.2% and 101%
same,"viability, T/C",compound 10 µM,67.4% (2×) and 86.7%
same,IC50,curve of compound,> 10000 nM
CC[C@@]1(O)C(=O)OCc2c1cc1n(c2=O)Cc2cc3c(CN(C)C)c(O)ccc3nc2-1,"viability, T/C",compound 0.003 µM,78.6% [middle of 10 runs]
same,"viability, T/C",compound 0.00949 µM,48.8% [middle of 10 runs]
same,"viability, T/C",compound 0.03 µM,16% [middle of 10 runs]
same,"viability, T/C",compound 0.0949 µM,7.7% [middle of 10 runs]
same,"viability, T/C",compound 0.3 µM,5.06% [middle of 10 runs]
same,IC50,"compound alone, run of 12/02/2019",8.64 nM [middle of 5 runs]
same,IC50,"compound alone, run of 12/12/2019",9.18 nM [middle of 5 runs]
